The source made the active and inactive calls.
Key:
[1] = target: Potassium voltage-gated channel subfamily KQT member 2 (Rattus norvegicus, UniProt O88943); experiment: KCNQ2 potassium channel inhibitors, dose response, cell-based, automated electrophysiology, set II, rat KCNQ2 (AID 588637); type: functional
[2] = target: Mitochondrial peptide methionine sulfoxide reductase (Bos taurus, UniProt P54149); experiment: Absorbance-based biochemical high throughput dose response assay for activators of Methionine sulfoxide reductase A (MsrA).; type: functional
[3] = cytotoxicity toward NIH3T3 fibroblasts, dose response, counter-screen, cell-based, ATP luminescence, mouse fibroblasts (AID 2010); type: functional;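 further: cells exposed to compound for about 90 hours before reading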
[4] = inhibitors of intracellular T. cruzi replication, confirmation, NIH3T3 host cells, beta-gal luminescence (AID 2044); type: functional, cell-based;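 further: intracellular parasites grown in NIH/3T3 mouse fibroblasts as host cells; luminescent beta-galactosidase reporter signal from transgenic T. cruzi replicating inside host cells; inhibitors lower the luminescence signal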
[5] = target: Melanocortin receptor 4 (Homo sapiens, UniProt P32245); type: functional, cell-based;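 further: Cell-based assay with luminescence read-out, confirmatory dose-response testing for agonist activity of biased ligands at MC4R; human U2OS cells with tagged receptor and beta-arrestin; potency of agonists that increase receptor coupling to beta-arrestin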
[6] = target: T1, Ubiquitin-conjugating enzyme E2 N (Homo sapiens, UniProt P61088); type: functional;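 further: Dose-response confirmation in a TR-FRET assay detecting UBC13-driven polyubiquitin chain formation, inhibition measured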
T1 sequence (P61088 whole entry): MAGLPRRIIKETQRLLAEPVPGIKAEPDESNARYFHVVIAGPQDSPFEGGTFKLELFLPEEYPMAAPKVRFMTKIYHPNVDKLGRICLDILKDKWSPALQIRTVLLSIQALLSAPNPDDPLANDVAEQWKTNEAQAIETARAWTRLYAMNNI

[7] = target: Neurotensin receptor type 1 (Homo sapiens, UniProt P30989); type: functional;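 further: Image-based confirmatory dose-response assay measuring agonist activity at NTR1; NTR1-expressing U2OS osteosarcoma cells imaged for beta-arrestin GFP spot formation; agonist potency where compounds increase beta-arrestin recruitment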
[8] = AlphaScreen signal interference compounds, dose response, artefact control for ARNT-TACC3 interaction inhibitor project, biochemical, luminescence, cherry-pick (AID 651705); type: functional;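 further: AlphaScreen bead proximity signal that flags compounds interfering with the detection technology; potency reflects signal decrease which marks the compound as an assay artifact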
[9] = control 3'UTR Renilla luciferase suppression, dose response, counter-screen for Shn3 inhibitor project, cell-based, Clone20-Shn3RL, cherry-picked (AID 624133); type: functional
[10] = HepG2 cell cytotoxicity, dose response, cytotoxicity control for Shn3 inhibitor project, CellTiter-Glo, cherry-picked (AID 624134); type: functional, cell-based
[11] = target: Cytochrome P450 2D6 (Homo sapiens, UniProt P10635);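 further: CYP2D6 member of a cytochrome P450 panel assay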
[12] = Shn3 3'UTR reporter inhibitors, dose response, cell-based, Clone20 osteoblasts, firefly luciferase, cherry-picked (AID 624132); type: functional;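 further: firefly luciferase luminescence from reporter carrying the Shn3 3'UTR in osteoblasts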
[13] = target: Protein Wnt-3a (Mus musculus, UniProt P27467); experiment: Wnt3a-driven reporter signaling inhibition, dose response, selectivity assay for Gli-SUFU antagonist project, Wnt-LIGHT cells, luminescence (AID 651570); type: functional; conditions: read-out: IC50_Mean;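 further: Wnt-LIGHT reporter cells stimulated with conditioned medium from Wnt3a-producing cells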
[14] = test system: Streptococcus sp. 'group A'; experiment: growth inhibition of control SK(-) GAS strain, dose response, counter-screen for streptokinase expression inhibitor project, luminescence, kanamycin, BacTiterGlo, confirmation (AID 1900); type: functional, organism-based
[15] = target: Photoreceptor-specific nuclear receptor (Homo sapiens, UniProt Q9Y5X4); type: functional, cell-based;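 further: CHO-S cells with Gal4-NCOR and VP16-NR2E3 two-hybrid luciferase reporter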
[16] = target: T2, Streptokinase A (Streptococcus pyogenes serotype M1, UniProt P10520); experiment: S. pyogenes streptokinase expression inhibitors, potency, dose response, plasminogen activation absorbance, OD405 (AID 1914); type: functional, Streptococcus pyogenes M1 GAS;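 further: secreted streptokinase activity via plasminogen activation per viability signal from cell pellet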
T2 sequence (P10520 whole entry): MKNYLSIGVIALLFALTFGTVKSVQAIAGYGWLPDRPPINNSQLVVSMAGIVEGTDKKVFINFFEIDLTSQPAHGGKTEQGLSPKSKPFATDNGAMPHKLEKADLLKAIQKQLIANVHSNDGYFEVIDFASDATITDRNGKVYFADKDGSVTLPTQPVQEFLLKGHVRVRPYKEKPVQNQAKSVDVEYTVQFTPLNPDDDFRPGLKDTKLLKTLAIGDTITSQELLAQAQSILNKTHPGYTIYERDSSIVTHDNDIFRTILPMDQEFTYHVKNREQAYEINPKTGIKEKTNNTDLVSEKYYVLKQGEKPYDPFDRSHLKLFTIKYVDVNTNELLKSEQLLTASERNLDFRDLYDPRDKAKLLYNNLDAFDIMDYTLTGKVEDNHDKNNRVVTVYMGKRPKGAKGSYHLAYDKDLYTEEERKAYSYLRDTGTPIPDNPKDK

[17] = test system: Streptococcus; experiment: Group A Streptococcus viability loss, dose response, counter-screen for streptokinase expression inhibitor project, luminescence, BacTiterGlo (AID 1915); type: functional, organism-based;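 further: potency for reduction of bacterial viability or growth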
[18] = ARNT/TACC3 interaction disruptors, potency, confirmation, biochemical, AlphaScreen, cherry-picked samples (AID 651703); type: functional, Homo sapiens;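 further: His-tagged ARNT PAS-B domain paired with GST-TACC3 E629A dimer coactivator fragment; potency of inhibitors that break up the complex and lower AlphaScreen signal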

Sequence of Melanocortin receptor 4 (P32245 whole entry): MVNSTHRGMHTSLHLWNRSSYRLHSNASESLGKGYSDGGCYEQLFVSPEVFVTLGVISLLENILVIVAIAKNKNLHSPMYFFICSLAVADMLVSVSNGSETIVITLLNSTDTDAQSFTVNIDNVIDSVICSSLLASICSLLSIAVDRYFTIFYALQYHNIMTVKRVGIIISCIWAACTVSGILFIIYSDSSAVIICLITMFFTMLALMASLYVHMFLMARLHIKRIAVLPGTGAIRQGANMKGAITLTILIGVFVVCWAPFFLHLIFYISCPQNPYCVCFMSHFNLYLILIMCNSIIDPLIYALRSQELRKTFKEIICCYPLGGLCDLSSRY
Sequence of Mitochondrial peptide methionine sulfoxide reductase (P54149 whole entry): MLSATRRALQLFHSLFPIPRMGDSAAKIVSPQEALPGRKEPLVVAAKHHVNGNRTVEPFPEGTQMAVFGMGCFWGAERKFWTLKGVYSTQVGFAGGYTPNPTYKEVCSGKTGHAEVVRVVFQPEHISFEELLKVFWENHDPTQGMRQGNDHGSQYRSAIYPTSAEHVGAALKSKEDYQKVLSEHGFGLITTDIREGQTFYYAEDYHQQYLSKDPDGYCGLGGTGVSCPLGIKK
Sequence of Potassium voltage-gated channel subfamily KQT member 2 (O88943 whole entry): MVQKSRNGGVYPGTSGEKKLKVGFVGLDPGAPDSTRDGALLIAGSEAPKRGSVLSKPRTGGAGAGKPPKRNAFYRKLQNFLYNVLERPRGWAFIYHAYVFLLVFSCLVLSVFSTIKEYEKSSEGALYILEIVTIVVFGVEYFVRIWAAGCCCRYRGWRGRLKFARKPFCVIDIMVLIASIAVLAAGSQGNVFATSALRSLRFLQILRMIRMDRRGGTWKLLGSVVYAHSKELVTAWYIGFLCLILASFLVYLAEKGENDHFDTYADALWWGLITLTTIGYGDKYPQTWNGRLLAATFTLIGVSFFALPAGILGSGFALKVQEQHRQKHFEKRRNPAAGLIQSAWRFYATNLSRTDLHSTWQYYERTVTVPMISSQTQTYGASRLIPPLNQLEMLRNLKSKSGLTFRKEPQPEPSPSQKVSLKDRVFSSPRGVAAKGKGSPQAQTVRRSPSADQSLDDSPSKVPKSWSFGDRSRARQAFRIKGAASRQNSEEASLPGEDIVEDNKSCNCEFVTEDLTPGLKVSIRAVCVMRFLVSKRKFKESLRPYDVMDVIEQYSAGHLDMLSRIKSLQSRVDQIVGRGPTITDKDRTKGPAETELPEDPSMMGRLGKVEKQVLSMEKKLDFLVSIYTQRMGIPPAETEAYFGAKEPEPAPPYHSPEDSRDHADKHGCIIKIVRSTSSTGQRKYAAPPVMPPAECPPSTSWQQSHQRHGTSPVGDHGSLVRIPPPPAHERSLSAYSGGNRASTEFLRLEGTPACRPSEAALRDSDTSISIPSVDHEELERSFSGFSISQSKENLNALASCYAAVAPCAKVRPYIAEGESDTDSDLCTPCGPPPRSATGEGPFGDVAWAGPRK
Sequence of Cytochrome P450 2D6 (P10635 whole entry): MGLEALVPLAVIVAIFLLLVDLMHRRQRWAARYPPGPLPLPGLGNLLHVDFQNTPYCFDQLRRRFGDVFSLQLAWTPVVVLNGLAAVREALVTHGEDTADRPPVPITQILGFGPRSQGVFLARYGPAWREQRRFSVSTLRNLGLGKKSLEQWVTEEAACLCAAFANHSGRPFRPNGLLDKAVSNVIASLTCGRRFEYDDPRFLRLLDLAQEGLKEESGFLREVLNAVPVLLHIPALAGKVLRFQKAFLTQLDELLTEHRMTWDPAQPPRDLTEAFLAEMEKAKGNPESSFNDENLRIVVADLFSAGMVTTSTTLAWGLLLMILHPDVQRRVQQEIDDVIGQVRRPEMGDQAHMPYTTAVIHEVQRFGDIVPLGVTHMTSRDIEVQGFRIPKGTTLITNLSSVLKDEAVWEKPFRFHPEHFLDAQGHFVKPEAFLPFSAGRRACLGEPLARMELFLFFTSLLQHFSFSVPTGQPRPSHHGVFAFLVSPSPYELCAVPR
Sequence of Protein Wnt-3a (P27467 whole entry): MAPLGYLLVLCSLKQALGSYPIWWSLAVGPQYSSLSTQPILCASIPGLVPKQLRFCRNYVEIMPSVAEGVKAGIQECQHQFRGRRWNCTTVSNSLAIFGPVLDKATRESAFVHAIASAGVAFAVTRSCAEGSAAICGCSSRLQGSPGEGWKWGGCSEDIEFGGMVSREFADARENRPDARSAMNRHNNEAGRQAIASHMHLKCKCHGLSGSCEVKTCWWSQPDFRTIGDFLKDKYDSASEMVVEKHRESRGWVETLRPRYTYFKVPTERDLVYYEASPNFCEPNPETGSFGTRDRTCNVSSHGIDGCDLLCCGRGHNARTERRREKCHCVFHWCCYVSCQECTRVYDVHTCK
Sequence of Photoreceptor-specific nuclear receptor (Q9Y5X4 whole entry, the tested form may be a part): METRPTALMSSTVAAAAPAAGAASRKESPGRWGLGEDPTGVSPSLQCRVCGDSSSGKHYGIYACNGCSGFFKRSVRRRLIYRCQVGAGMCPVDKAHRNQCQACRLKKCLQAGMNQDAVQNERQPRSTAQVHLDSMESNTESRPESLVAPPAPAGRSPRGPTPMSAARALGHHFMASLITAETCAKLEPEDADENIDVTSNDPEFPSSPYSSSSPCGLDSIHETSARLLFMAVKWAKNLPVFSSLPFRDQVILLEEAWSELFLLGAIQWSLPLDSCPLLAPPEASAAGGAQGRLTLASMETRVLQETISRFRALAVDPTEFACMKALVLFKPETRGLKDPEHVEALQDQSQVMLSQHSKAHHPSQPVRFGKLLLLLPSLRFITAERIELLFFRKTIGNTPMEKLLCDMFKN
Sequence of Neurotensin receptor type 1 (P30989 whole entry): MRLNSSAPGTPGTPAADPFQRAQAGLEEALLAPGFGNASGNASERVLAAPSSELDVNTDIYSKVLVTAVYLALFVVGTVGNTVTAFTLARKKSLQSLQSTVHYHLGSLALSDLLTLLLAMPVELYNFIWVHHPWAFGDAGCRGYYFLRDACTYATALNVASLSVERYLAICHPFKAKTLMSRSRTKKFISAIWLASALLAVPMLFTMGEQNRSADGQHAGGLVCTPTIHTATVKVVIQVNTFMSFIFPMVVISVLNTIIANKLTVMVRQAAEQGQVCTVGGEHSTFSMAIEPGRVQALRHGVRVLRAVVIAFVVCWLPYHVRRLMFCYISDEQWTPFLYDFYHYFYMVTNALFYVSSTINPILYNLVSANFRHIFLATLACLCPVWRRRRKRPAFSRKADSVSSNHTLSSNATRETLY

CC(C)(C)N1CC(c2nc3ccccc3n2Cc2ccc(Cl)cc2)CC1=O (stereo not drawn)
IC50 [1]: 1.23 µM (active)

CN(CC(=O)Nc1ccccc1N1CCOCC1)S(=O)(=O)c1ccc(Cl)cc1
EC50 [2]: > 104 µM (inactive)

CCCOC(=O)c1cccc(Nc2nc(-c3cccnc3)nc3ccccc23)c1
EC50 [3]: 9.22 µM (active) | EC50 [4]: 0.534 µM (active) | EC50 [5]: > 89.3 µM (inactive) | IC50 [6]: > 20 µM (inactive) | EC50 [7]: > 40 µM (inactive)

Nc1nc(CN2CCCCCC2)nc(Nc2ccccc2)n1
AC50 [8]: 133 µM (active)

O=c1c2ccccc2nc2n1C(CSCc1cccc(C(F)(F)F)c1)CS2 (stereo not drawn)
AC50 [9]: 0.863 µM (active) | AC50 [10]: 3.22 µM (active) | AC50 [11]: 7.08 µM (inconclusive) | AC50 [12]: 1.68 µM (active) | IC50 [13]: 2.01 µM (active)

CCN(c1ccccc1)S(=O)(=O)c1ccc(C(=O)Nc2nnc(CSC)o2)cc1
EC50 [14]: 3.5 µM (active) | IC50 [15]: 8.64 µM (active) | EC50 [16]: > 150 µM (not active) | EC50 [17]: 15 µM (active)

O=C1c2cccc3cccc(c23)C(=O)N1CCCCCc1nnc(S)o1
AC50 [18]: 102 µM (active)
